Literature values in patent US20170072004A1, “COMPOSITIONS AND METHODS FOR IMPROVING THE BIOAVAILABILITY OF CURCUMINOIDS” (priority 2015, published 2017).

Conditions: rats, oral curcumin 2 g/kg, co-administration of piperine

COc1cc(/C=C/C(=O)CC(=O)/C=C/c2ccc(O)c(OC)c2)ccc1O [curcumin, diferuloylmethane]
Increase in systemic bioavailability following oral dosing: ≤ 154%
